*1 amine or outer side, *2 acyl side, *3 side chain or, on linkers, in order; H or OH if unused. Where a SMILES comes first, the peptide text is derived from it. Bridges are numbered along the chain shown (N, C = ends). [ ]: non-standard residue; d: D form. The star is where a group is joined. Orn(4R-OH,5R-OH) = O=C([C@H](C[C@@H](O)[C@@H](O)N[*:3])N[*:1])[*:2]; Tetradecanoyl(10R,12S-Me2) = CC[C@H](C)C[C@H](C)CCCCCCCCC(=O)*; hTyr(3S-OH,4S-OH) = N[C@H](C(=O)O)[C@H](O)[C@@H](O)c1ccc(O)cc1; Gln(3R-OH) = NC(=O)C[C@@H](O)[C@H](N)C(=O)O; Pro(3S-OH) = O=C(O)[C@H]1NCC[C@@H]1O; Hyp = O=C(O)[C@@H]1C[C@@H](O)CN1
Biological target: BTK (Homo sapiens, UniProt Q06187)
Sequence (Q06187 402-655 limits assumed): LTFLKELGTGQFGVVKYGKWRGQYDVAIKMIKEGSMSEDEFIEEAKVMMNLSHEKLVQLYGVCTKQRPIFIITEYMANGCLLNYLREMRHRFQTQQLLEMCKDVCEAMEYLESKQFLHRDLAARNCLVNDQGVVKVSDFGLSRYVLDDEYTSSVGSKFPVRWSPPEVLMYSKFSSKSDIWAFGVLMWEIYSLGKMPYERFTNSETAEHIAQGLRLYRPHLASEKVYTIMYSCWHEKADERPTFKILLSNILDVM
Assay: biochemical
Details: read-out: BTK inhibition (%), 0.75 uM BTK, […] probe 3l, 15 min preincubation

| SMILES | inhibition at 10 µM |
| --- | --- |
| NCC[C@H](O)C(=O)N[C@@H]1C[C@H](N)[C@@H](O[C@H]2O[C@H](CN)[C@@H](O)[C@H](O)[C@H]2O)[C@H](O)[C@H]1O[C@H]1O[C@H](CO)[C@@H](O)[C@H](N)[C@H]1O [PCM-0215174] | 9.4% |
| CC(=O)O[C@]1(C(C)=O)CC[C@H]2[C@@H]3C[C@H](C)C4=CC(=O)CC[C@]4(C)[C@H]3CC[C@@]21C [PCM-0095356] | -18.7% |
| Cc1ccc(NC(=O)Nc2cc(C(F)(F)F)ccc2F)cc1Nc1ccc2c(c1)NC(=O)/C2=C\c1ccc[nH]1 [PCM-0215372] | 116% |
| CC[C@H](C)C(=O)O[C@H]1C[C@@H](C)C=C2C=C[C@H](C)[C@H](CC[C@@H]3C[C@@H](O)CC(=O)O3)[C@H]21 [PCM-0086045] | 9.3% |
| O=C(Nc1ccc(O)c(C(=O)O)c1)c1cccc(NC(=O)c2ccco2)c1 [PCM-0215939] | -8.5% |
| O=C(O)CCCc1c[nH]c2ccccc12 [PCM-0094810] | -12.5% |
| CCc1cc2c(cc1N1CCC(N3CCOCC3)CC1)C(C)(C)c1[nH]c3cc(C#N)ccc3c1C2=O [PCM-0095523] | 11.7% |
| CCN(CC)C(=S)SSC(=S)N(CC)CC [PCM-0064895] | -5.5% |
| CC(=O)c1ccccc1 [PCM-0216190] | 3.1% |
| CC(=O)OC/C=C(/C)CCC=C(C)C [PCM-0216620] | 1.5% |
| CC(C)[C@H]1C(=O)N[C@@H](CCCN=C(N)N)C(=O)NCC(=O)N[C@@H](CC(=O)O)C(=O)N[C@H](Cc2ccccc2)C(=O)N1C [PCM-0095583] | -6.9% |
| C=CCc1cc(OC)c(O)c(C(=O)NCCO)c1 [PCM-0095214] | -16.3% |
| CC(=O)O[C@]1(C(C)=O)CC[C@H]2[C@@H]3C=C(Cl)C4=CC(=O)[C@@H]5C[C@@H]5[C@]4(C)[C@H]3CC[C@@]21C [PCM-0214712] | 21% |
| N#CSc1cc(SC#N)c(N)nc1N [PCM-0095820] | 112% |
| C=CC(=O)N1CCC[C@H](n2c(=O)n(-c3ccc(Oc4ccccc4)cc3)c3c(N)ncnc32)C1 [PCM-0215519] | 97.2% |
| CC(C)(Oc1ccc(C2CC2(Cl)Cl)cc1)C(=O)O (stereo not shown) [PCM-0064433] | -14% |
| CN(C)c1cc(NC(=O)CNC(C)(C)C)c(O)c2c1C[C@H]1C[C@H]3[C@H](N(C)C)C(=O)C(C(N)=O)=C(O)[C@@]3(O)C(=O)C1=C2O [PCM-0214621] | 32.7% |
| CN[C@@H](C)C(=O)N[C@H](C(=O)N1CCC[C@H]1C(=O)N[C@H]1c2ccccc2C[C@H]1OCC#CC#CCO[C@@H]1Cc2ccccc2[C@@H]1NC(=O)[C@@H]1CCCN1C(=O)[C@@H](NC(=O)[C@H](C)NC)C1CCCCC1)C1CCCCC1 [PCM-0215824] | 2.6% |
| CC1=CC[C@@H](C(C)(C)O)CC1 [PCM-0216214] | -20.8% |
| CCCCCCCCCC(=O)OCC(COC(=O)CCCCCCCCC)OC(=O)CCCCCCCCC [PCM-0216614] | 11.6% |
| CO[C@@H]1[C@@H](OC(N)=O)[C@@H](O)[C@H](Oc2ccc3c(O)c(NC(=O)c4ccc(O)c(CC=C(C)C)c4)c(=O)oc3c2C)OC1(C)C [PCM-0086469] | 7% |
| CC(C)=CCC[C@](C)(O[C@@H]1O[C@H](CO)[C@@H](O)[C@H](O)[C@H]1O)[C@H]1CC[C@]2(C)[C@@H]1[C@H](O)C[C@@H]1[C@@]3(C)CC[C@H](O[C@@H]4O[C@H](CO)[C@@H](O)[C@H](O)[C@H]4O[C@@H]4O[C@H](CO)[C@@H](O)[C@H](O)[C@H]4O)C(C)(C)[C@@H]3CC[C@]12C [PCM-0215020] | 21% |
| O=C(NS(=O)(=O)c1ccc(Br)s1)c1ccc(Cl)cc1Cl [PCM-0095739] | -10% |
| O=C(O)c1ccc(O)c2ncccc12 [PCM-0215316] | -4.6% |

| SMILES | inhibition at 10 µM |
| --- | --- |
| CCCN1CCCC[C@H]1C(=O)Nc1c(C)cccc1C [PCM-0095613] | -24.9% |
| O=C(O)COCCN1CCN(C(c2ccccc2)c2ccc(Cl)cc2)CC1 (stereo not shown) [PCM-0065180] | 15.2% |
| COc1cc(CCC(=O)CC(=O)CCc2ccc(O)c(OC)c2)ccc1O [PCM-0216226] | -7% |
| CCOc1nc2cccc(C(=O)O)c2n1Cc1ccc(-c2ccccc2-c2nn[nH]n2)cc1 [PCM-0086226] | 24.1% |
| CC(C)(C)Cn1c(N)nc2ccc(-c3[nH]c(C(C)(C)C)nc3-c3ccc(F)cc3)nc21 [PCM-0095175] | -5.1% |
| NCCC(O)(P(=O)(O)O)P(=O)(O)O [PCM-0094901] | -6.8% |
| O=C(Nc1cccc2c(=O)cc(-c3nn[nH]n3)oc12)c1ccc(OCCCCc2ccccc2)cc1 [PCM-0095155] | 73.8% |
| CC1CCc2c(N3CCC(O)CC3)c(F)cc3c(=O)c(C(=O)O)cn1c23 (stereo not shown) [PCM-0086338] | 1.6% |
| COc1cc2c(=O)c(-c3ccc(O)cc3)coc2cc1O [PCM-0216399] | 6.2% |
| CC(=O)N1c2ccc(-c3ccc(C(=O)O)cc3)cc2[C@H](Nc2ccc(Cl)cc2)C[C@@H]1C [PCM-0215400] | 31.7% |
| COc1cc(C(=O)NC2CCCNC2)cc(OC)c1OC (stereo not shown) [PCM-0214753] | -3.1% |
| COc1ccc(F)c(F)c1C(=O)c1cnc(NC2CCN(S(C)(=O)=O)CC2)nc1N [PCM-0095383] | -9.7% |
| O=C1OC(COc2ccccc2[N+](=O)[O-])CC1Cc1ccccc1 (stereo not shown) [PCM-0215840] | -3.1% |
| C=CC(=O)Nc1ccc(CN2C(=O)N(c3cc(OC)cc(OC)c3)Cc3cnc(Nc4ccc(N5CCN(C)CC5)cc4)nc32)cc1 [PCM-0215559] | 88.3% |
| Nc1ccn(C[C@@H](CO)OCP(=O)(O)O)c(=O)n1 [PCM-0095189] | -12.8% |
| COc1ccc(-c2cc3c(C)nc(N)nc3n(C3CCC(OCCO)CC3)c2=O)cn1 (stereo not shown) [PCM-0095467] | -9.7% |
| C=C1CC[C@H]2O[C@]2(C)CC[C@@H]2[C@@H]1CC2(C)C [PCM-0214945] | -11.7% |
| CCN(CC)CCCC(C)Nc1c2ccc(Cl)cc2nc2ccc(OC)cc12 (stereo not shown) [PCM-0065371] | -8.5% |
| CCOc1ccc2ccccc2c1C(=O)N[C@@H]1C(=O)N2[C@@H]1SC(C)(C)[C@@H]2C(=O)O [PCM-0214744] | -11.7% |
| Nc1nc(N)c2nc(-c3ccccc3)c(N)nc2n1 [PCM-0065015] | -4.7% |
| CC(C)=CC(O)C/C(C)=C/COc1c2ccoc2cc2oc(=O)ccc12 (stereo not shown) [PCM-0216460] | -45.6% |
| O=C(O)C1=C(CSc2nnnn2CS(=O)(=O)O)CS[C@@H]2[C@H](NC(=O)[C@H](O)c3ccccc3)C(=O)N12 [PCM-0214888] | 3.9% |
| NCCCCCC(=O)O [PCM-0064402] | -2.3% |
| COc1ccc(-c2ccc3c(N4CCOCC4)nc(N4C[C@@H](C)O[C@@H](C)C4)nc3n2)cc1CO [PCM-0094955] | -12.4% |

| SMILES | inhibition at 10 µM |
| --- | --- |
| CN1CC[C@@H](c2c(O)cc(O)c3c(=O)cc(-c4ccccc4Cl)oc23)[C@@H]1CO [PCM-0215197] | -5.5% |
| Cc1cc(C(=O)Nc2nc3cccc(Cl)c3n2[C@@H]2CCCCN(C(=O)/C=C/CN(C)C)C2)ccn1 [PCM-0215804] | 73.8% |
| NCc1ccc(S(N)(=O)=O)cc1 [PCM-0085773] | -28.8% |
| COC(=O)C1=C(C)NC(C)=C(C(=O)OCC(C)C)C1c1ccccc1[N+](=O)[O-] (stereo not shown) [PCM-0086426] | 31.1% |
| C=CCNC(N)=S [PCM-0090807] | -18.7% |
| O=C(O)c1ccccc1C(=O)Nc1ccc(-c2ccccc2)cc1 [PCM-0215383] | 13.9% |
| C=C[C@H]1CN2CC[C@H]1C[C@H]2[C@H](O)c1ccnc2ccc(OC)cc12 [PCM-0004959] | -22.6% |
| O=C(NC[C@H]1CN(c2ccc(N3CCOCC3=O)cc2)C(=O)O1)c1ccc(Cl)s1 [PCM-0095448] | 4.7% |
| CC12CC(c3ccoc3)OC13CC(OC3=O)C1C3CC(CC12)OC3=O (stereo not shown) [PCM-0216321] | 2.3% |
| CC(CNC(=O)c1cccnc1)NC(=O)c1cccnc1 (stereo not shown) [PCM-0214789] | -8.6% |
| CCOC(=O)c1csc(Nc2ccc(Cl)cc2)n1 [PCM-0215549] | 17.8% |
| CCCc1cc(C(N)=S)ccn1 [PCM-0086237] | -11.7% |
| CN1CC(=O)N=C1N [PCM-0090615] | -3.4% |
| CN(C)c1ccc(-c2nc3ncc(Cl)c(N4CCN(CC(=O)Nc5nccs5)CC4)c3[nH]2)cc1 [PCM-0095191] | -2.6% |
| CC[C@H]1OC(=O)C[C@@H](OC(C)=O)[C@H](C)[C@@H](O[C@@H]2O[C@H](C)[C@@H](O[C@H]3C[C@@](C)(O)[C@@H](OC(=O)CC(C)C)[C@H](C)O3)[C@H](N(C)C)[C@H]2O)[C@@H](CC=O)C[C@@H](C)C(=O)/C=C/C(C)=C/[C@@H]1CO[C@@H]1O[C@H](C)[C@@H](O)[C@@H](OC)[C@H]1OC [PCM-0216006] | -20.1% |
| NC(N)=N/N=C/c1c(Cl)cccc1Cl [PCM-0065199] | -2.3% |
| CCCCCCCCCCCCCCCc1cccc(O)c1C(=O)O [PCM-0215370] | -19.3% |
| CC/C(=C(\c1ccc(O)cc1)c1ccc(OCCNC)cc1)c1ccccc1 [PCM-0215485] | 14.7% |
| C=C[C@]1(C)C[C@@H](OC(=O)CSC(C)(C)CNC(=O)[C@H](N)C(C)C)[C@]2(C)[C@H](C)CC[C@]3(CCC(=O)[C@H]32)[C@@H](C)[C@@H]1O [PCM-0214765] | 20.2% |
| CC[C@H](C)C[C@H](C)CCCCCCCCC(=O)N[C@H]1C[C@@H](O)[C@@H](O)NC(=O)[C@@H]2[C@@H](O)CCN2C(=O)[C@H]([C@H](O)CC(N)=O)NC(=O)[C@H]([C@H](O)[C@@H](O)c2ccc(O)cc2)NC(=O)[C@@H]2C[C@@H](O)CN2C(=O)[C@H]([C@@H](C)O)NC1=O [PCM-0216459] ({Tetradecanoyl(10R,12S-Me2)}-[Orn(4R-OH,5R-OH)]T[Hyp][hTyr(3S-OH,4S-OH)][Gln(3R-OH)][Pro(3S-OH)]; lactam 1-C) | -42.5% |
| CC1=C[C@@]2(O)O[C@@]3(CC2=C(C)C)[C@@H](C)CC[C@@H]13 [PCM-0214997] | 20.7% |
| CN1CCN(c2nc(C3=C(c4c[nH]c5ccccc45)C(=O)NC3=O)c3ccccc3n2)CC1 [PCM-0095375] | 57.9% |

From publication PMC8041284, “Tunable Methacrylamides for Covalent Ligand Directed Release Chemistry” (Journal of the American Chemical Society, 2021)
